In the supplement of paper PMC10307832:

Assays:
Experiment in all cases: relative viability (nuclei count vs DMSO), 5 days (fraction); higher = more cells survive
[1] = compound: C1COCCN1C2=NC(=NC3=C2OC4=C3C=CC=N4)C5=CC(=CC=C5)NC(=O)C6=CN=C(C=C6)N + CCNC(=O)c1noc(-c2cc(C(C)C)c(O)cc2O)c1-c1ccc(CN2CCOCC2)cc1 [Luminespib] (partner 0.01 µM)
Summary of the method: (§1)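 Lung cancer cell lines in 1536-well plates got either a single drug or a fixed anchor-drug dose together with five library-drug doses (not always all listed) in √10 steps, by pin tool, on the day after seeding. Nuclei were counted after 5 days, and relative viability is the treated-to-vehicle ratio of nuclei counts. Values are medians of duplicate plates.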

SGI-1776 + Vorinostat = compound: CN1CCC(CNc2ccc3ncc(-c4cccc(OC(F)(F)F)c4)n3n2)CC1 [SGI-1776] + O=C(CCCCCCC(=O)Nc1ccccc1)NO [Vorinostat] (partner 1 µM)
Summary of the method: as §1

[2] = compound: C1COCCN1C2=NC(=NC3=C2OC4=C3C=CC=N4)C5=CC(=CC=C5)NC(=O)C6=CN=C(C=C6)N + CC(=O)c1c(C)c2cnc(Nc3ccc(N4CCNCC4)cn3)nc2n(C2CCCC2)c1=O [Palbociclib] (partner 0.5 µM)
Summary of the method: as §1

[3] = compound: C1COCCN1C2=NC(=NC3=C2OC4=C3C=CC=N4)C5=CC(=CC=C5)NC(=O)C6=CN=C(C=C6)N + O=C(c1cc(Cc2n[nH]c(=O)c3ccccc23)ccc1F)N1CCN(C(=O)C2CC2)CC1 [Olaparib] (partner 8 µM)
Summary of the method: as §1

## UMC-11
[1]; first compound 0.02 µM
  relative viability: 1.13
[1]; first compound 0.06325 µM
  relative viability: 1.07
[1]; first compound 0.2 µM
  relative viability: 1.02
[1]; first compound 0.6325 µM
  relative viability: 1.07
[1]; first compound 2 µM
  relative viability: 0.628
SGI-1776 + Vorinostat; first compound 0.08 µM
  relative viability: 0.404
SGI-1776 + Vorinostat; first compound 0.8 µM
  relative viability: 0.378
SGI-1776 + Vorinostat; first compound 2.53 µM
  relative viability: 0.357
SGI-1776 + Vorinostat; first compound 8 µM
  relative viability: 0.228
[2]; first compound 0.02 µM
  relative viability: 0.347
[2]; first compound 0.06325 µM
  relative viability: 0.327
[2]; first compound 0.2 µM
  relative viability: 0.344
[2]; first compound 0.6325 µM
  relative viability: 0.324
[2]; first compound 2 µM
  relative viability: 0.265
[3]; first compound 0.02 µM
  relative viability: 0.374
[3]; first compound 0.06325 µM
  relative viability: 0.37
[3]; first compound 0.2 µM
  relative viability: 0.354
[3]; first compound 0.6325 µM
  relative viability: 0.359
[3]; first compound 2 µM
  relative viability: 0.246
